# Assay results as given in US20250009769A1, “USE OF LYSOPHOSPHATIDIC ACID (LPA) IN CONTROLLING PORCINE INFECTIOUS DIARRHEA” (SICHUAN AGRICULTURAL UNIVERSITY, priority 2023, published 2025).
# Marks after values point to notes of the source that are not given here.
# Key:
# ETEC [1] = experiment: Diarrhea rate caused by Escherichia coli in weaned piglets, dietary 0.2% LPA (Example 2); format: in vivo, DLY weaned piglets; conditions: ETEC + LPA group: 0.2% LPA in diet
# Experimental: 21-day-old DLY weaned piglets were selected, with an average weight of (6.23±0.82) kg.
# In the experiment, 24 piglets were divided into 3 groups, each group had 8 replicates, and the experimental period was 21 d. […] Slaughtering and sampling were conducted on the morning of day 21 of the experiment.
# ETEC [2] = experiment: Diarrhea rate and diarrhea index of weaned piglets after ETEC challenge, dietary 0.3% LPA (Example 1); format: in vivo, DLY weaned piglets
# Experimental: (§1) 25-day-old DLY weaned piglets were selected, with an average weight of (7.24±0.07) kg.
# (§2) In the experiment, 32 piglets were divided into 4 groups with 8 replicates in each group, and the experimental period was 21 d. […] Slaughtering and sampling were conducted on the morning of day 21 of the experiment.
# ETEC [3] = experiment: Intestinal permeability of piglets infected with ETEC, dietary 0.3% LPA (Example 1); format: in vivo, DLY weaned piglets
# Experimental: as §1, §2
# [4] = parameters: species or system DLY weaned piglets; conditions: in vivo
# Experimental: as §1, §2
# ETEC [5] = experiment: Intestinal tissue morphology of piglets infected with ETEC, dietary 0.3% LPA (Example 1); format: in vivo, DLY weaned piglets; conditions: for Duodenum V/C ratio / Ileum V/C ratio / Jejunum V/C ratio: villus height/crypt depth
# Experimental: as §1, §2
# ETEC challenge reduced villus height and V/C in the duodenum and ileum (P<0.05), and increased crypt depth in the ileum (P<0.05). […] Furthermore, the LPA reduced the crypt depth and increased the villus height/crypt depth (V/C) ratio in the ileum of ETEC-challenged piglets (P<0.05).
# [6] = LPA + ETEC group: diet with 0.3% LPA, ETEC challenge on day 18
# [7] = LPA group: diet with 0.3% LPA, saline instead of ETEC
# [8] = LPA + ETEC group: 0.3% LPA, ETEC challenge
structure (smiles),measurement,setting,value
"CCCCCCCC/C=C\CCCCCCCC(=O)OC[C@@H](O)COP(=O)([O-])[O-].[Na+].[Na+] [LPA, 1-oleoyl-sn-glycerol 3-phosphate sodium salt]",Diarrhea index,ETEC [1]; after challenge,1.98^b
same,Diarrhea rate,ETEC [1]; after challenge,33.56 ± 0.28^b %
same,Diarrhea index,ETEC [1]; before challenge,1.68
same,Diarrhea rate,ETEC [1]; before challenge,11.86 ± 0.15^b %
same,Diarrhea index,ETEC [2]; [6],0.75 ± 0.56^b
same,Diarrhea rate,ETEC [2]; [6],37.50 ± 27.99^b %
same,Diarrhea index,ETEC [2]; [7],0.00 ± 0.00^c
same,Diarrhea rate,ETEC [2]; [7],0.00 ± 0.00^c %
same,D-lactic acid,ETEC [3]; [8],1.53 ± 0.93^b mg/L
same,DAO,ETEC [3]; [8],335.62 ± 14.23^b pg/mL
same,Fluid accumulation rate,ETEC [3]; [8],1.42 ± 0.68^b
same,LPS,ETEC [3]; [8],49.13 ± 2.56^b ng/L
same,D-lactic acid,"ETEC [3]; LPA group: 0.3% LPA, no ETEC",1.69 ± 0.22^b mg/L
same,DAO,"ETEC [3]; LPA group: 0.3% LPA, no ETEC",330.43 ± 12.78^b pg/mL
same,Fluid accumulation rate,"ETEC [3]; LPA group: 0.3% LPA, no ETEC",1.32 ± 1.21^b
same,LPS,"ETEC [3]; LPA group: 0.3% LPA, no ETEC",48.23 ± 5.23^b ng/L
same,Impact on piglet growth performance,[4],no significant negative impact on piglet growth performance
same,Duodenum crypt depth,ETEC [5]; [8],273.45 ± 9.78 ^ μm
same,Duodenum villus height,ETEC [5]; [8],452.55 ± 11.68^b μm
same,Ileum crypt depth,ETEC [5]; [8],170.08 ± 4.12^b μm
same,Ileum villus height,ETEC [5]; [8],378.37 ± 13.76^a μm
same,Jejunum crypt depth,ETEC [5]; [8],177.98 ± 6.30 ^ μm
same,Jejunum villus height,ETEC [5]; [8],360.56 ± 10.87 ^ μm
same,Duodenum V/C ratio,ETEC [5]; [8],1.65 ± 1.19^b
same,Ileum V/C ratio,ETEC [5]; [8],2.22 ± 3.34^b
same,Jejunum V/C ratio,ETEC [5]; [8],2.02 ± 1.73^
same,Duodenum crypt depth,"ETEC [5]; LPA group: 0.3% LPA, no ETEC",270.03 ± 8.13 μm
same,Duodenum villus height,"ETEC [5]; LPA group: 0.3% LPA, no ETEC",493.34 ± 12.43^a μm
same,Ileum crypt depth,"ETEC [5]; LPA group: 0.3% LPA, no ETEC",150.45 ± 4.89^b μm
same,Ileum villus height,"ETEC [5]; LPA group: 0.3% LPA, no ETEC",401.46 ± 13.45^a μm
same,Jejunum crypt depth,"ETEC [5]; LPA group: 0.3% LPA, no ETEC",160.98 ± 3.23 μm
same,Jejunum villus height,"ETEC [5]; LPA group: 0.3% LPA, no ETEC",377.28 ± 9.89 μm
same,Duodenum V/C ratio,"ETEC [5]; LPA group: 0.3% LPA, no ETEC",1.83 ± 1.53^a
same,Ileum V/C ratio,"ETEC [5]; LPA group: 0.3% LPA, no ETEC",2.67 ± 2.75^a
same,Jejunum V/C ratio,"ETEC [5]; LPA group: 0.3% LPA, no ETEC",2.34 ± 3.06
